This is an account of results in patent US10633366B2, “Antibacterial compounds” (AZIENDE CHIMICHE RIUNITE ANGELINI FRANCESCO A.C.R.A.F. …, priority 2016, dated 2020).

Structures are written as SMILES. Where two headings read alike, the source gives them in different places.

Broadly, the IC50 is the concentration at which inhibition is half-maximal. Low values mean greater potency in that assay, high ones weaker potency in that assay. The inhibition is the relative decrease from the control value, in per cent.

Test in all cases: biochemical
The target in experiment [1] is E. coli DNA gyrase (Escherichia coli, UniProt P0AES4+P0AES6). The note with it: for IC50: IC50 DNA gyrase; for inhibition at 50 µM: read-out: % inhibition DNA gyrase.
Chain of E. coli DNA gyrase (P0AES4 whole entry, one chain of several): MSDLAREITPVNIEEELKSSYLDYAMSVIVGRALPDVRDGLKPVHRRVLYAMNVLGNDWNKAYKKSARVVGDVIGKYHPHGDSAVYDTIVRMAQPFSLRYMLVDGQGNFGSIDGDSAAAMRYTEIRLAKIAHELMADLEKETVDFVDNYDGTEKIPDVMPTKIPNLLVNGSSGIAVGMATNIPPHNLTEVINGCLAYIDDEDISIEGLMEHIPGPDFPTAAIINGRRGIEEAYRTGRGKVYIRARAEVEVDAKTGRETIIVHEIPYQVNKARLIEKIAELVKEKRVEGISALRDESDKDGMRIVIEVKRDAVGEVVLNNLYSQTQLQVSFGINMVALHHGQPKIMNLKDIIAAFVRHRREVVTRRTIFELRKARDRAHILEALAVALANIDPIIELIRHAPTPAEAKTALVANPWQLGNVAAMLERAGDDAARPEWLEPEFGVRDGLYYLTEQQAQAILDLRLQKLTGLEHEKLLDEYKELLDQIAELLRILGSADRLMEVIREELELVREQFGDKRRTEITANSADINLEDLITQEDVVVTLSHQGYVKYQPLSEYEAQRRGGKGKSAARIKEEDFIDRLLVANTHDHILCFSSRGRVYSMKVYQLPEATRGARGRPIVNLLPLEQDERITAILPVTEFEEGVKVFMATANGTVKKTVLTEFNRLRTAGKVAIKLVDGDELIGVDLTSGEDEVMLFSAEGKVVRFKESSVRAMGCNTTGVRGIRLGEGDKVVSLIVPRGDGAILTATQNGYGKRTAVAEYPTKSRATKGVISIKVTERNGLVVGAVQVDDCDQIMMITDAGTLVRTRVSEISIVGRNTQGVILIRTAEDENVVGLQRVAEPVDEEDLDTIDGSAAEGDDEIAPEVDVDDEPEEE
Experiment [2] deals with E. coli Topoisomerase IV (Escherichia coli, UniProt P0AFI2+P20083). Particulars: for IC50: IC50 Topo IV; for inhibition at 50 µM: read-out: % inhibition Topo IV.
Chain of E. coli Topoisomerase IV (P0AFI2 whole entry): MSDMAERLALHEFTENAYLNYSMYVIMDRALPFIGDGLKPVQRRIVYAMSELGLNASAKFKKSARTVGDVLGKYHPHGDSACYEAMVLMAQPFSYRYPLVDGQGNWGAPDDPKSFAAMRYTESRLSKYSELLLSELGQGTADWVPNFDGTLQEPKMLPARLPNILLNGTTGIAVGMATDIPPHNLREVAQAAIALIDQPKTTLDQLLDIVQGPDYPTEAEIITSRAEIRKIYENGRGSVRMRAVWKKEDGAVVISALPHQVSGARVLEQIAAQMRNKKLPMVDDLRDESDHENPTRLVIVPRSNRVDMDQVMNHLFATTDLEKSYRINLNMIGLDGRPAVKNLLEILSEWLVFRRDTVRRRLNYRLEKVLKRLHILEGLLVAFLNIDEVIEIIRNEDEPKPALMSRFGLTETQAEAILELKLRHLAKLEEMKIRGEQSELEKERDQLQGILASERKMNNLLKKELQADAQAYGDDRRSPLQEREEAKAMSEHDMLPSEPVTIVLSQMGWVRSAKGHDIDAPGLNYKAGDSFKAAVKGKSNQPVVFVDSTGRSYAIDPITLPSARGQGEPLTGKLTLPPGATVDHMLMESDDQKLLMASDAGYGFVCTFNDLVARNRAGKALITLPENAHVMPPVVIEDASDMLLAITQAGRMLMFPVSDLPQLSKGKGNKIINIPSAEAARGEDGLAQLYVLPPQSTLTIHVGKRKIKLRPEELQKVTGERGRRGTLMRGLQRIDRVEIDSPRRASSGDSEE
Chain of E. coli Topoisomerase IV (P20083 whole entry): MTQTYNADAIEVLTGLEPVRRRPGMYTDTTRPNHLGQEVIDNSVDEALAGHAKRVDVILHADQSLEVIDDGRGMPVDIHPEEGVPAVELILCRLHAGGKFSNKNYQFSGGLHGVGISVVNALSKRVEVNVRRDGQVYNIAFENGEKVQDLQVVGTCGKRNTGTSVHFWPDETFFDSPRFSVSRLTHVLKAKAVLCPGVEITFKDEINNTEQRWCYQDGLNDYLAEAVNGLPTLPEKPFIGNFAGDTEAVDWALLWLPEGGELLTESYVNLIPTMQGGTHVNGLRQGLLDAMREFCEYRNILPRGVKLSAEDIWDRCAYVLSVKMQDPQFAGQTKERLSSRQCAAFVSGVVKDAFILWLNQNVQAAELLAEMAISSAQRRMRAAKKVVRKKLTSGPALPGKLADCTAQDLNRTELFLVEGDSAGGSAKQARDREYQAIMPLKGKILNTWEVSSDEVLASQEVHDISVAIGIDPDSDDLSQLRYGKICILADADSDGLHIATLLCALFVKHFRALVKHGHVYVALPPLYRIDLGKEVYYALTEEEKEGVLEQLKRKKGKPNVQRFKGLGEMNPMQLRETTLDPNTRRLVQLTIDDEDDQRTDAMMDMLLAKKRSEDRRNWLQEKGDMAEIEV
The target in experiment [3] is S. aureus DNA gyrase (Staphylococcus aureus, UniProt P0A0K8+P20831). The note with it: for IC50: IC50 DNA gyrase; for inhibition at 50 µM: read-out: % inhibition DNA gyrase.
Chain of S. aureus DNA gyrase (P0A0K8 whole entry): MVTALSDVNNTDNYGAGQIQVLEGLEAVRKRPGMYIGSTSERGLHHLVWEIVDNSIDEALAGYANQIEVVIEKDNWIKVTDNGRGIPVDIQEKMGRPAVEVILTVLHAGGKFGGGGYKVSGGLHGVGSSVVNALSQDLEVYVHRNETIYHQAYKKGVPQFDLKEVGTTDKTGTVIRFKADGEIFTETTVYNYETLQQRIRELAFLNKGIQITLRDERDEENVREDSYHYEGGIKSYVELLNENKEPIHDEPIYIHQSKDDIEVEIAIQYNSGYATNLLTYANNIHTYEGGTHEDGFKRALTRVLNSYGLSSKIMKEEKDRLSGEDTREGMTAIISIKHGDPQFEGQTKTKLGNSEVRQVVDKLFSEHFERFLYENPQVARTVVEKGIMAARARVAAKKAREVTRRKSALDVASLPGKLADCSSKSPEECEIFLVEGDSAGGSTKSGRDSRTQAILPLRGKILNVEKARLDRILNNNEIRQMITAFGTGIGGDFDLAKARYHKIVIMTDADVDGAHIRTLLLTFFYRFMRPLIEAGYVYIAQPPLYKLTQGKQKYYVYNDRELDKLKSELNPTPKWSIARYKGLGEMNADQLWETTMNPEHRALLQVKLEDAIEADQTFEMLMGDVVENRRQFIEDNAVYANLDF
Chain of S. aureus DNA gyrase (P20831 whole entry): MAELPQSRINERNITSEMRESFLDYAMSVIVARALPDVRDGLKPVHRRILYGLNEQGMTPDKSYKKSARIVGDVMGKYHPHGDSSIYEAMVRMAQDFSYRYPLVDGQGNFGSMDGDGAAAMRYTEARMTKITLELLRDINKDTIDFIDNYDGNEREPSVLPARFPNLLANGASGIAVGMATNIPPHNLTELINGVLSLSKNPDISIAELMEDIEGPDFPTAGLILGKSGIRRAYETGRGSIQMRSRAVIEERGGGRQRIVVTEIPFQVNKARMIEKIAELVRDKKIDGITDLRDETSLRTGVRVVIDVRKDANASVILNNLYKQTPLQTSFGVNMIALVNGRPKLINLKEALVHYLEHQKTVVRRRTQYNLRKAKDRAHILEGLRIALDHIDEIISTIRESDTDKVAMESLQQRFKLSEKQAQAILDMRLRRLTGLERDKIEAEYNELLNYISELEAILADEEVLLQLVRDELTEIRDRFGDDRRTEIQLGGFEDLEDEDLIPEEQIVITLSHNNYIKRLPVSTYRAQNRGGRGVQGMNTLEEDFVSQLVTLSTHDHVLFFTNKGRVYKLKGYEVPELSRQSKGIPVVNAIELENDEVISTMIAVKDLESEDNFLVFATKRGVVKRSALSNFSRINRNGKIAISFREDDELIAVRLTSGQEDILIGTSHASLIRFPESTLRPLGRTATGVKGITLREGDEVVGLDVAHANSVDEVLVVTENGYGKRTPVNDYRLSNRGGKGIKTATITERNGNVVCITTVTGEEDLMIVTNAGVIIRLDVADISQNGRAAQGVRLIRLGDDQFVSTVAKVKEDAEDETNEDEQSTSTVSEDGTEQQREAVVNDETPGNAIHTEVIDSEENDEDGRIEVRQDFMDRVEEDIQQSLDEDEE
Experiment [4] has as its target S. aureus Topoisomerase IV (Staphylococcus aureus, UniProt P0C1S7+P0C1U9). The note with it: for IC50: IC50 Topo IV; for inhibition at 50 µM: read-out: % inhibition Topo IV.
Setting [5] is: S. aureus, compound conc. 50 μM, percent of inhibition versus positive control, n/a = not active.

For `COc1ccc2ncc(=O)n([C@H]3CC[C@H](NCc4cc5c(=O)oc6ccc(F)cc6c5[nH]4)CC3)c2n1` [Compound 201, 8-fluoro-2-({[trans-4-(6-methoxy-3-oxopyrido[2,3-b]pyrazin-4(3H)-yl)cyclohexyl]amino}methyl)[1]benzopyrano[4,3-b]pyrrol-4(1H)-one], the IC50 in experiment [1] is less than 100 nM; in experiment [2] it was less than 100 nM; in experiment [3] it was 190 nM; in experiment [4] it was less than 100 nM. Besides, the inhibition at 50 µM in experiment [1], in experiment [2], in experiment [3] and in experiment [4] was 100% throughout.

Consider `COc1ccc2ccc(=O)n(C3CCN(CCc4cc5c(=O)oc6ccc(F)cc6c5[nH]4)CC3)c2n1` [Compound 202, 8-fluoro-2-{2-[4-(7-methoxy-2-oxo-1,8-naphthyridin-1(2H)-yl)piperidin-1-yl]ethyl}[1]benzopyrano[4,3-b]pyrrol-4(1H)-one], for which the inhibition at 50 µM in experiment [1], in experiment [2], in experiment [3] and in experiment [4] was 100% each time.

Turning to `COc1cnc2ccc(=O)n([C@H]3CC[C@H](NCc4cc5c(=O)oc6ccc(F)cc6c5[nH]4)CC3)c2c1` [Compound 204, 8-fluoro-2-({[trans-4-(7-methoxy-2-oxo-1,5-naphthyridin-1(2H)-yl)cyclohexyl]amino}methyl)[1]benzopyrano[4,3-b]pyrrol-4(1H)-one], the half-inhibitory concentration (IC50) in experiment [1] was 50 nM; in experiment [2] it was less than 100 nM; in experiment [3] it was 640 nM; in experiment [4], less than 100 nM. Besides, the inhibition at 50 µM in experiment [1], in experiment [2], in experiment [3] and in experiment [4] (setting [5]) was 100% throughout.

On to `COc1cnc2ccc(=O)n([C@H]3CC[C@@H](NCc4cc5c(=O)oc6ccc(F)cc6c5[nH]4)CC3)c2c1` [Compound 205, 8-fluoro-2-({[cis-4-(7-methoxy-2-oxo-1,5-naphthyridin-1(2H)-yl)cyclohexyl]amino}methyl)[1]benzopyrano[4,3-b]pyrrol-4(1H)-one], for which the IC50 in experiment [1] was 100 nM; in experiment [2] it was 310 nM; in experiment [3], 170 nM; in experiment [4] it was 100 nM. Moreover, the inhibition at 50 µM in experiment [1], in experiment [2], in experiment [3] and in experiment [4] (setting [5]) was 100% throughout.

As to `N#Cc1ccc2ccc(=O)n([C@H]3CC[C@H](NCc4cc5c(=O)oc6ccc(F)cc6c5[nH]4)CC3)c2c1` [Compound 206, 1-(trans-4-{[(8-fluoro-4-oxo-1,4-dihydro[1]benzopyrano[4,3-b]pyrrol-2-yl)methyl]amino}cyclohexyl)-2-oxo-1,2-dihydroquinoline-7-carbonitrile], the IC50 in experiment [1] was 50 nM; in experiment [2], less than 100 nM; in experiment [3], 130 nM; in experiment [4], less than 100 nM. Further, the inhibition at 50 µM in experiment [1], in experiment [2], in experiment [3] and in experiment [4] (setting [5]) was 100% in each case.

`O=c1oc2ccc(F)cc2c2[nH]c(CN[C@H]3CC[C@H](n4c(=O)ccc5ncc(F)cc54)CC3)cc12` [Compound 207, 8-fluoro-2-({[trans-4-(7-fluoro-2-oxo-1,5-naphthyridin-1(2H)-yl)cyclohexyl]amino}methyl)[1]benzopyrano[4,3-b]pyrrol-4(1H)-one]: the half-maximal inhibitory concentration (IC50) in experiment [1], in experiment [2], in experiment [3] and in experiment [4] was less than 100 nM throughout. Besides, the inhibition at 50 µM in experiment [1], in experiment [2], in experiment [3] and in experiment [4] (setting [5]) was 100% each time.

Consider `COc1ccc2ncc(=O)n([C@H]3CC[C@H](NCc4cc5c(=O)oc6ccc(F)cc6c5[nH]4)CC3)c2c1` [Compound 208, 8-fluoro-2-({[trans-4-(7-methoxy-2-oxoquinoxalin-1(2H)-yl)cyclohexyl]amino}methyl)[1]benzopyrano[4,3-b]pyrrol-4(1H)-one], for which the half-inhibitory concentration (IC50) in experiment [1] turned out to be 80 nM; in experiment [2], 270 nM; in experiment [3] it was 110 nM; in experiment [4], 130 nM. For the same compound, the inhibition at 50 µM in experiment [1], in experiment [2], in experiment [3] and in experiment [4] (setting [5]) was 100% throughout.

As to `O=c1oc2ccc(F)cc2c2[nH]c(CN[C@H]3CC[C@H](n4c(=O)cnc5ncc(F)cc54)CC3)cc12` [Compound 209, 8-fluoro-2-({[trans-4-(7-fluoro-2-oxopyrido[2,3-b]pyrazin-1(2H)-yl)cyclohexyl]amino}methyl)[1]benzopyrano[4,3-b]pyrrol-4(1H)-one], the IC50 in experiment [1] was found to be 130 nM; in experiment [2], 1000 nM; in experiment [3] it was 300 nM; in experiment [4], 220 nM. In addition, the inhibition at 50 µM in experiment [1], in experiment [2], in experiment [3] and in experiment [4] (setting [5]) was 100% throughout.

For `O=c1oc2ccc(F)cc2c2[nH]c(CN[C@H]3CC[C@@H](n4c(=O)cnc5ncc(F)cc54)CC3)cc12` [Compound 210, 8-fluoro-2-({[cis-4-(7-fluoro-2-oxopyrido[2,3-b]pyrazin-1(2H)-yl)cyclohexyl]amino}methyl)[1]benzopyrano[4,3-b]pyrrol-4(1H)-one], the IC50 in experiment [1] was 440 nM; in experiment [2] it was 13800 nM; in experiment [3] it was 1300 nM; in experiment [4], 1310 nM. For the same compound, the inhibition at 50 µM turned out to be 92% in experiment [1], 86% in experiment [2], 100% in experiment [3] and 84% in experiment [4] (setting [5]).

Turning to `O=c1oc2ccc(F)cc2c2[nH]c(CN[C@H]3CC[C@H](n4c(=O)cnc5ccc(F)cc54)CC3)cc12` [Compound 211, 8-fluoro-2-({[trans-4-(7-fluoro-2-oxoquinoxalin-1(2H)-yl)cyclohexyl]amino}methyl)[1]benzopyrano[4,3-b]pyrrol-4(1H)-one], the IC50 in experiment [1], in experiment [2], in experiment [3] and in experiment [4] was less than 100 nM each time. The inhibition at 50 µM in experiment [1], in experiment [2], in experiment [3] and in experiment [4] (setting [5]) was 100% each time.

With `COc1cnc2ncc(=O)n([C@H]3CC[C@H](NCc4cc5c(=O)oc6ccc(F)cc6c5[nH]4)CC3)c2c1` [Compound 212, 8-fluoro-2-({[trans-4-(7-methoxy-2-oxopyrido[2,3-b]pyrazin-1(2H)-yl)cyclohexyl]amino}methyl)[1]benzopyrano[4,3-b]pyrrol-4(1H)-one], the half-maximal inhibitory concentration (IC50) in experiment [1] was found to be 100 nM; in experiment [2], 170 nM; in experiment [3] it was 140 nM; in experiment [4] it was 70 nM. Moreover, the inhibition at 50 µM in experiment [1], in experiment [2], in experiment [3] and in experiment [4] (setting [5]) was 100% in each case.

With `COc1cnc2ncc(=O)n([C@H]3CC[C@@H](NCc4cc5c(=O)oc6ccc(F)cc6c5[nH]4)CC3)c2c1` [Compound 213, 8-fluoro-2-({[cis-4-(7-methoxy-2-oxopyrido[2,3-b]pyrazin-1(2H)-yl)cyclohexyl]amino}methyl)[1]benzopyrano[4,3-b]pyrrol-4(1H)-one], the IC50 in experiment [1] was found to be 110 nM; in experiment [2] it was 1000 nM; in experiment [3] it was 280 nM; in experiment [4], 580 nM. Also, the inhibition at 50 µM in experiment [1] amounted to 98%; in experiment [2], 97%; in experiment [3] it was 100%; in experiment [4] (setting [5]), 84%.

For the compound `N#Cc1cnc2c(c1)N([C@H]1CC[C@H](NCc3cc4c(=O)oc5ccc(F)cc5c4[nH]3)CC1)C(=O)CO2` [Compound 214, 1-(trans-4-{[(8-fluoro-4-oxo-1,4-dihydro[1]benzopyrano[4,3-b]pyrrol-2-yl)methyl]amino}cyclohexyl)-2-oxo-2,3-dihydro-1H-pyrido[2,3-b][1,4]oxazine-7-carbonitrile], the half-inhibitory concentration (IC50) came to 120 nM in experiment [1], 1030 nM in experiment [2], 160 nM in experiment [3] and 570 nM in experiment [4]. Besides, the inhibition at 50 µM in experiment [1] turned out to be 99%; in experiment [2], 100%; in experiment [3], 100%; in experiment [4] (setting [5]), 100%.

On to `O=c1oc2ccc(F)cc2c2[nH]c(CN[C@H]3CC[C@H](n4c(=O)ccc5ccc(F)cc54)CC3)cc12` [Compound 216, 8-fluoro-2-({[trans-4-(7-fluoro-2-oxoquinolin-1(2H)-yl)cyclohexyl]amino}methyl)[1]benzopyrano[4,3-b]pyrrol-4(1H)-one], for which the IC50 in experiment [1] worked out at 130 nM; in experiment [2], 250 nM; in experiment [3] it was 310 nM; in experiment [4] it was 290 nM. The inhibition at 50 µM in experiment [1], in experiment [2], in experiment [3] and in experiment [4] (setting [5]) was 100% each time.

Turning to `NC(=O)[C@]1(NCc2cc3c(=O)oc4ccc(F)cc4c3[nH]2)CC[C@H](N2C(=O)COc3ncc(F)cc32)CC1` [Compound 217, Trans-1-{[(8-fluoro-4-oxo-1,4-dihydro[1]benzopyrano[4,3-b]pyrrol-2-yl)methyl]amino}-4-(7-fluoro-2-oxo-2,3-dihydro-1H-pyrido[2,3-b][1,4]oxazin-1-yl)cyclohexane-1-carboxamide], the 50% inhibitory concentration (IC50) in experiment [1] worked out at 1450 nM; in experiment [2] it was 690 nM; in experiment [3], 2150 nM; in experiment [4] it was 2720 nM. Also, the inhibition at 50 µM came to 82% in experiment [1], 50% in experiment [2], 100% in experiment [3] and 100% in experiment [4] (setting [5]).
